Experiments:
PPARγ = target: T1, PPARγ (Homo sapiens, UniProt P37231); experiment: nuclear receptor cellular GAL4 reporter assay; type: cell-based; settings: agonist and antagonist mode; read-out: potency in agonist and antagonist mode
T1 construct: expressed in transfected cells

ZAP-70(h) = target: T2, ZAP-70(h) (Homo sapiens, UniProt P43403); experiment: Kinase panel; type: biochemical
T2 construct: purchased Cerep (receptors, ion channels, transporters); Eurofins Panlabs (kinases)
Experimental: (§1) Kinase selectivity was conducted by Eurofins Panlabs Inc (St Charles, MO).

PAK4(h) = target: T3, PAK4(h) (Homo sapiens, UniProt O96013); experiment: Kinase panel; type: biochemical
T3 construct: purchased Cerep (receptors, ion channels, transporters); Eurofins Panlabs (kinases)
T3 sequence (O96013 whole entry): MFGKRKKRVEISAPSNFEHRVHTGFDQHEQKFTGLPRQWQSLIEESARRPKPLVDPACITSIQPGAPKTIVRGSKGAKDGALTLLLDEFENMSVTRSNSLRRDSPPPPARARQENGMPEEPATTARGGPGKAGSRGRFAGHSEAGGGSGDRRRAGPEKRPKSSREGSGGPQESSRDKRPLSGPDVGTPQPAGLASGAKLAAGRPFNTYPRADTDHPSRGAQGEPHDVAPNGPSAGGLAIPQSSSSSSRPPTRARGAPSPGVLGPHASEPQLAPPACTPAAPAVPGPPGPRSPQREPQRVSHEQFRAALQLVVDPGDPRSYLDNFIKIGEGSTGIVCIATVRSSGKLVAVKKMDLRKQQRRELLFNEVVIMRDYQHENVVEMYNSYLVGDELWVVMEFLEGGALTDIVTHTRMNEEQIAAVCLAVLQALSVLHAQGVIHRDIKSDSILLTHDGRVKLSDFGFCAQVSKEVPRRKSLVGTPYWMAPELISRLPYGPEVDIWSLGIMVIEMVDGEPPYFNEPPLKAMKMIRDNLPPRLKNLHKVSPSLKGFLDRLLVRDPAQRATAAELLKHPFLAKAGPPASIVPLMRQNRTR
Experimental: as §1

MT1 (h) = target: T4, MT1 (h) (Homo sapiens, UniProt P48039); experiment: Cerep panel; type: binding
T4 construct: purchased Cerep (receptors, ion channels, transporters); Eurofins Panlabs (kinases)
T4 sequence (P48039 whole entry): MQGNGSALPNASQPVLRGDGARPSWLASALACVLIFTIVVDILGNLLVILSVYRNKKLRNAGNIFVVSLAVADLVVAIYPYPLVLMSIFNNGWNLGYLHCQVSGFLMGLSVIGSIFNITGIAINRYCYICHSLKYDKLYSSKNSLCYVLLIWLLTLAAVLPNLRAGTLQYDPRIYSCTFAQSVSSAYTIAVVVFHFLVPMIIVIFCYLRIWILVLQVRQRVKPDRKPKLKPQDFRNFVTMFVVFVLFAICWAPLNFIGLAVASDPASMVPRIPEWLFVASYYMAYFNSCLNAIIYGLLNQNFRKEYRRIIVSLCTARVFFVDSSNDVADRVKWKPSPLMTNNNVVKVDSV
Experimental: (§2) A panel of 52 different receptors, ion channels and transporters was tested by Cerep, Inc. (Redmond, WA).

healthy human volunteers = experiment: phase 1 single ascending dose study, safety
Experimental: Randomized, double-blind, placebo-controlled, single center study was designed by Janssen Immunology Clinical Development team and approved by Independent Ethics Committee/Institutional Review Board (Comité voor Medische Ethiek UZA, Wilrijkstraat 10, Edegem, 2650, Belgium). The study was conducted in Janssen’s Clinical Pharmacology Unit in Belgium from May 18th 2017 to April 5th 2018, according to Declaration of Helsinki principles and International Committee on Harmonisation Good Clinical Practice guidelines. […] Participants were healthy males and females of non-childbearing potential (postmenopausal or permanently sterile), aged 18 to 60 years inclusive, with a body mass index of 18 and 30 kg/m^2 and body weight of not less than 50 kg. Informed consent was obtained from all participants. No formal sample size and power calculations were performed. The number of participants chosen for this study was considered adequate to provide a preliminary safety assessment and PK assessment. The randomization was based on a computer-generated treatment randomization schedule prepared and balanced by using randomly permuted blocks. […] Participants and study site staff members including the Investigator were blinded to treatment allocation during entire study period. […] Cohorts 1 to 4 received single oral doses of 10, 30, 100 and 200 mg after an overnight fast, and cohort 5 were dosed 100 mg within 30 min of the start of a standard high fat meal. […] For all parts of the study, adverse events and concomitant medications were assessed and recorded from screening through follow-up (day 14–21 post-dose). The following safety measures were assessed at various time points during the study: medical history, physical examination, neurologic examination, electrocardiogram (12-lead ECG, or continuous telemetry), and vital signs (blood pressure, heart rate, respiratory rate, and temperature). […] This was a Phase 1 first-in-human study with limited sample size, the data generated was descriptive in nature, and no formal statistical hypothesis testing was planned. Although there was no formal interim analysis, assessments of PK and PD samples by cohort and safety assessments were conducted and reviewed during the study to plan dose-escalation and future development.

5-HT1A (h) = target: T5, 5-HT1A (h) (Homo sapiens, UniProt P08908); experiment: Cerep panel; type: binding
T5 construct: purchased Cerep (receptors, ion channels, transporters); Eurofins Panlabs (kinases)
T5 sequence (P08908 whole entry): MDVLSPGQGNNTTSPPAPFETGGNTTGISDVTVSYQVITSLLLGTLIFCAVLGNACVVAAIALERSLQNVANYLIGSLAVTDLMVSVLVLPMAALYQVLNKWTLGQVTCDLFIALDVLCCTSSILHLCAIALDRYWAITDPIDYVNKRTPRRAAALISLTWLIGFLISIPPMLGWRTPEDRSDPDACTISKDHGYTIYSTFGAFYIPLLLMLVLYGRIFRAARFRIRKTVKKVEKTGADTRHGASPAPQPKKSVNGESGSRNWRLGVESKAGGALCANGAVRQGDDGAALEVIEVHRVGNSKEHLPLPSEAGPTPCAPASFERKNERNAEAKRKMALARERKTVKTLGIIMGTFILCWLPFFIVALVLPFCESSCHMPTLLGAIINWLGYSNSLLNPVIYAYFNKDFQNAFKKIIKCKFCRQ
Experimental: as §2

PR = target: T6, PR (Homo sapiens, UniProt P06401); experiment: nuclear receptor cellular GAL4 reporter assay; type: cell-based; settings: agonist and antagonist mode; read-out: potency in agonist and antagonist mode
T6 construct: expressed in transfected cells
T6 sequence (P06401 whole entry, the tested form may be a part): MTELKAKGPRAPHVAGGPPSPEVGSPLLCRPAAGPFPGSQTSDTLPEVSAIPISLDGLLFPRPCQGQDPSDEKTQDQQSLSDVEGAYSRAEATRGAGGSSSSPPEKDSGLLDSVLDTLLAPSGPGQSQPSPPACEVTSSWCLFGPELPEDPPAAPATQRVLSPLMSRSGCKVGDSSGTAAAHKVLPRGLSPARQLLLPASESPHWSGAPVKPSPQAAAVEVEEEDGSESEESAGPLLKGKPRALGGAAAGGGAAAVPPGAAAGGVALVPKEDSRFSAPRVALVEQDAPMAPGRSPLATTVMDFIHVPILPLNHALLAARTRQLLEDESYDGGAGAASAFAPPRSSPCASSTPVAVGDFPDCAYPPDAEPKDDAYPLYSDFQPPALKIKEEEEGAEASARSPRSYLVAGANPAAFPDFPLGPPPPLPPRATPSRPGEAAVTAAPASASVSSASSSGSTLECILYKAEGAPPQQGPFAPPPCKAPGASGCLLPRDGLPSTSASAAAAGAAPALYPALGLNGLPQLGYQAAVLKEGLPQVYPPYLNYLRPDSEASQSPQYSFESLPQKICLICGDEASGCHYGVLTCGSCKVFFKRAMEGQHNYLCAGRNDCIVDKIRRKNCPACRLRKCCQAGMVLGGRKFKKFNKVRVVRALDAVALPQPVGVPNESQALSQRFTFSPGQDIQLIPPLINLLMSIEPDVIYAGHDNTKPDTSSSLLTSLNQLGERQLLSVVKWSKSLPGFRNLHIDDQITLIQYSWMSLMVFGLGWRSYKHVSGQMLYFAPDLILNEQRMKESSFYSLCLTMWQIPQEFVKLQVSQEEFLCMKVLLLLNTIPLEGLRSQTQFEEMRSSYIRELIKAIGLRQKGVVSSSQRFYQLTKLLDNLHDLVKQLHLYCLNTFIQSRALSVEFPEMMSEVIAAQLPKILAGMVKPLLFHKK

H1 (h) = target: T7, H1 (h) (Homo sapiens, UniProt P35367); experiment: Cerep panel; type: binding
T7 construct: purchased Cerep (receptors, ion channels, transporters); Eurofins Panlabs (kinases)
T7 sequence (P35367 whole entry): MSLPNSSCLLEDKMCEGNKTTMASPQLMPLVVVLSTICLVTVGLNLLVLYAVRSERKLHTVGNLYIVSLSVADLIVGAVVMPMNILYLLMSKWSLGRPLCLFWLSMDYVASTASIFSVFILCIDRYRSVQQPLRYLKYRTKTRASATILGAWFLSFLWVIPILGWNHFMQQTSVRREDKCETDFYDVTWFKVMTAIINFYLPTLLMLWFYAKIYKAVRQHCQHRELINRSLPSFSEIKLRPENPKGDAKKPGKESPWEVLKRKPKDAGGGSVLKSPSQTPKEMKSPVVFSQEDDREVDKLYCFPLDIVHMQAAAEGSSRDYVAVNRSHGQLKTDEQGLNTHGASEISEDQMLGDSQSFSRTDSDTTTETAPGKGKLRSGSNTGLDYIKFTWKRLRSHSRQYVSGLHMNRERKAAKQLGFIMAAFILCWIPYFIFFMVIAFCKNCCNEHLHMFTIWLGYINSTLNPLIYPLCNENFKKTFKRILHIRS
Experimental: as §2

rat whole blood = experiment: in vitro whole blood assay, IL-17A production; type: cell-based; settings: rat whole blood diluted 1:4; read-out: IC50, inhibition of IL-17A production
Experimental: Two days later, IL-17A levels were measured in culture supernatant samples (see supplementary materials and methods).

Beagle dogs = experiment: 1-month GLP toxicity study in dogs; type: in vivo; settings: dog
Experimental: The type of study plan was reviewed and agreed by the Laboratory Animal Welfare Officer and the Animal Ethical Committee (officially known as Dierexperimentencommissie (DEC) Charles River Den Bosch), as required by the Dutch Act on Animal Experimentation (February 1997). Both rat and dog studies were performed in AALAC accredited Charles River Laboratories in the Netherlands. Studies in rats were conducted with 0, 25, 100, and 400 mg/kg per day (n = 10/sex/group) for 1 month. An additional 5 animals/sex in vehicle and high dose were allowed to continue for a 1-month treatment-free recovery period. Studies in dogs were conducted with 0, 3, 10, and 30 mg/kg per day (n = 4/sex/group) for 1 month. A treatment-free recovery period of 1 month (additional 2 dogs/sex/group) was included for both vehicle controls and high dose groups. […] Rats and dogs were examined for mortality, clinical signs, ophthalmoscopic changes, body weight, food consumption, hematology, clinical chemistry, anatomic pathology, and toxicokinetics. In addition, dogs were examined for electrocardiographic changes. Rats and dogs were also assessed for reversal of any effects following a 1-month recovery period. These studies were conducted in compliance with good laboratory practice (GLP) regulations.

[1] = 100 mg (fasted) n = 9, single oral dose
[2] = 100 mg (fed) n = 9, single oral dose

T2 sequence (P43403 whole entry): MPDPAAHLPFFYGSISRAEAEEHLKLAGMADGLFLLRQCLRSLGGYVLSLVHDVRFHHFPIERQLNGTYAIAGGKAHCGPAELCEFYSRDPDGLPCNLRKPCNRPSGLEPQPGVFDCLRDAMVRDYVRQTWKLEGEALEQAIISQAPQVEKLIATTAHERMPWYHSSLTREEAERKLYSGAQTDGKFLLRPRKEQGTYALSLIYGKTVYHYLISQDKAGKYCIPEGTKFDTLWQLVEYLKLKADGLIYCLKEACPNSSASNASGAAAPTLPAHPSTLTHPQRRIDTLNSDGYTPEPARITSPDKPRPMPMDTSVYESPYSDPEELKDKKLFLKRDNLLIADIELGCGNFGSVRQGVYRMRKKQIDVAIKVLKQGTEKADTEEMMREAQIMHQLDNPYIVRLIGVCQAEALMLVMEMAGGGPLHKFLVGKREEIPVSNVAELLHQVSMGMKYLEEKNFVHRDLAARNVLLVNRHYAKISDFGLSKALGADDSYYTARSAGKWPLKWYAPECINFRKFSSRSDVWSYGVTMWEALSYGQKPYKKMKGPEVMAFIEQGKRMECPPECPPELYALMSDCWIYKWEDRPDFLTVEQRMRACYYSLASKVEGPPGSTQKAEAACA
T1 sequence (P37231 whole entry, the tested form may be a part): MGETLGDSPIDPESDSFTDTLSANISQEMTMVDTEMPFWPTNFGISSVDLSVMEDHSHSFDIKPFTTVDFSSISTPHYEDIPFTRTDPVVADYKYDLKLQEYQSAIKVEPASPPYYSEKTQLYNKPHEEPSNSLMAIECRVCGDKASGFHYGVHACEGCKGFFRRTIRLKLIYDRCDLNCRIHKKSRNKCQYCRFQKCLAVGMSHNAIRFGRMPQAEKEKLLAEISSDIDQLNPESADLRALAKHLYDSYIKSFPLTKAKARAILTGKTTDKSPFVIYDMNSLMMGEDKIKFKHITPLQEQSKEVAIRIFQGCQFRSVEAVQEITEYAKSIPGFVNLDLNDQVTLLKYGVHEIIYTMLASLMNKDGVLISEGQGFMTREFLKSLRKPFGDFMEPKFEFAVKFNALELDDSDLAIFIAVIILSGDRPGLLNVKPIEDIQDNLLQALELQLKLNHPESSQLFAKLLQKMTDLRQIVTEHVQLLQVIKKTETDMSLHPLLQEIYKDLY

CC1CCCN1C(=O)c1nc(C(=O)NCC(C)(C)O)sc1-c1ccc(C(O)(C(F)(F)F)C(F)(F)F)c(Cl)c1Cl (stereo not drawn) [JNJ-61803534]
IC50 (PPARγ): > 1.5 µM | activity at 1 µM (ZAP-70(h)): 137% | activity at 10 µM (ZAP-70(h)): 119% | activity at 1 µM (PAK4(h)): 104% | activity at 10 µM (PAK4(h)): 103% | inhibition at 1 µM (MT1 (h)): < 10% | inhibition at 10 µM (MT1 (h)): 20.4% | Aphthous ulcer, treatment-emergent adverse events (healthy human volunteers; 10 mg n = 6, single oral dose): 0 | Back pain, treatment-emergent adverse events (healthy human volunteers; 10 mg n = 6, single oral dose): 1 | Diarrhea, treatment-emergent adverse events (healthy human volunteers; 10 mg n = 6, single oral dose): 0 | Headache, treatment-emergent adverse events (healthy human volunteers; 10 mg n = 6, single oral dose): 0 | Hypercholesterolaemia, treatment-emergent adverse events (healthy human volunteers; 10 mg n = 6, single oral dose): 0 | Medical device site reaction, treatment-emergent adverse events (healthy human volunteers; 10 mg n = 6, single oral dose): 0 | Musculoskeletal discomfort, treatment-emergent adverse events (healthy human volunteers; 10 mg n = 6, single oral dose): 0 | Nasal congestion, treatment-emergent adverse events (healthy human volunteers; 10 mg n = 6, single oral dose): 0 | Oral herpes, treatment-emergent adverse events (healthy human volunteers; 10 mg n = 6, single oral dose): 0 | Viral upper respiratory tract infection, treatment-emergent adverse events (healthy human volunteers; 10 mg n = 6, single oral dose): 0 | Aphthous ulcer, treatment-emergent adverse events (healthy human volunteers; 30 mg n = 6, single oral dose): 0 | Back pain, treatment-emergent adverse events (healthy human volunteers; 30 mg n = 6, single oral dose): 0 | Diarrhea, treatment-emergent adverse events (healthy human volunteers; 30 mg n = 6, single oral dose): 0 | Headache, treatment-emergent adverse events (healthy human volunteers; 30 mg n = 6, single oral dose): 1 | Hypercholesterolaemia, treatment-emergent adverse events (healthy human volunteers; 30 mg n = 6, single oral dose): 0 | Medical device site reaction, treatment-emergent adverse events (healthy human volunteers; 30 mg n = 6, single oral dose): 1 | Musculoskeletal discomfort, treatment-emergent adverse events (healthy human volunteers; 30 mg n = 6, single oral dose): 0 | Nasal congestion, treatment-emergent adverse events (healthy human volunteers; 30 mg n = 6, single oral dose): 0 | Oral herpes, treatment-emergent adverse events (healthy human volunteers; 30 mg n = 6, single oral dose): 1 | Viral upper respiratory tract infection, treatment-emergent adverse events (healthy human volunteers; 30 mg n = 6, single oral dose): 0 | Aphthous ulcer, treatment-emergent adverse events (healthy human volunteers; [1]): 0 | Back pain, treatment-emergent adverse events (healthy human volunteers; [1]): 1 | Diarrhea, treatment-emergent adverse events (healthy human volunteers; [1]): 2 | Headache, treatment-emergent adverse events (healthy human volunteers; [1]): 4 | Hypercholesterolaemia, treatment-emergent adverse events (healthy human volunteers; [1]): 2 | Medical device site reaction, treatment-emergent adverse events (healthy human volunteers; [1]): 2 | Musculoskeletal discomfort, treatment-emergent adverse events (healthy human volunteers; [1]): 0 | Nasal congestion, treatment-emergent adverse events (healthy human volunteers; [1]): 2 | Oral herpes, treatment-emergent adverse events (healthy human volunteers; [1]): 0 | Viral upper respiratory tract infection, treatment-emergent adverse events (healthy human volunteers; [1]): 2 | Aphthous ulcer, treatment-emergent adverse events (healthy human volunteers; [2]): 1 | Back pain, treatment-emergent adverse events (healthy human volunteers; [2]): 1 | Diarrhea, treatment-emergent adverse events (healthy human volunteers; [2]): 2 | Headache, treatment-emergent adverse events (healthy human volunteers; [2]): 0 | Hypercholesterolaemia, treatment-emergent adverse events (healthy human volunteers; [2]): 0 | Medical device site reaction, treatment-emergent adverse events (healthy human volunteers; [2]): 2 | Musculoskeletal discomfort, treatment-emergent adverse events (healthy human volunteers; [2]): 0 | Nasal congestion, treatment-emergent adverse events (healthy human volunteers; [2]): 0 | Oral herpes, treatment-emergent adverse events (healthy human volunteers; [2]): 1 | Viral upper respiratory tract infection, treatment-emergent adverse events (healthy human volunteers; [2]): 2 | participants with clinically significant high cholesterol values (healthy human volunteers; 100 mg fasted group): 2 | participants with clinically significant high cholesterol values (healthy human volunteers; 200 mg fasted group): one | Aphthous ulcer, treatment-emergent adverse events (healthy human volunteers; 200 mg n = 6, single oral dose): 1 | Back pain, treatment-emergent adverse events (healthy human volunteers; 200 mg n = 6, single oral dose): 1 | Diarrhea, treatment-emergent adverse events (healthy human volunteers; 200 mg n = 6, single oral dose): 0 | Headache, treatment-emergent adverse events (healthy human volunteers; 200 mg n = 6, single oral dose): 0 | Hypercholesterolaemia, treatment-emergent adverse events (healthy human volunteers; 200 mg n = 6, single oral dose): 1 | Medical device site reaction, treatment-emergent adverse events (healthy human volunteers; 200 mg n = 6, single oral dose): 1 | Musculoskeletal discomfort, treatment-emergent adverse events (healthy human volunteers; 200 mg n = 6, single oral dose): 2 | Nasal congestion, treatment-emergent adverse events (healthy human volunteers; 200 mg n = 6, single oral dose): 0 | Oral herpes, treatment-emergent adverse events (healthy human volunteers; 200 mg n = 6, single oral dose): 0 | Viral upper respiratory tract infection, treatment-emergent adverse events (healthy human volunteers; 200 mg n = 6, single oral dose): 0 | participants with Grade 2 or higher abnormal cholesterol values (healthy human volunteers; combined JNJ-61803534 group): Fourteen | participants with TEAEs reasonably related to the study agent (healthy human volunteers; combined JNJ-61803534 group (diarrhea)): 1 | TEAEs leading to death, treatment-emergent severe adverse events, severe TEAEs or TEAEs leading to discontinuation (healthy human volunteers; in vivo): no | safety and tolerability (healthy human volunteers; single doses up to and including 200 mg): safe and well-tolerated | inhibition at 1 µM (5-HT1A (h)): < 10% | inhibition at 10 µM (5-HT1A (h)): < 10% | IC50 (PR): > 1.5 µM | inhibition at 1 µM (H1 (h)): < 10% | inhibition at 10 µM (H1 (h)): < 10% | IC50 (rat whole blood): 0.12 ± 0.01 µM | tolerability (Beagle dogs; 10 mg/kg/day, weight loss and reduced food consumption in the fourth week, trend for increased ALP): clinically well tolerated during the first 3 weeks of treatment | tolerability (Beagle dogs; 30 mg/kg/day, intestinal mucosal hemorrhages and slight hepatocellular lipid vacuolation in some animals): exceeded the maximum tolerated dose | lymphocyte apoptosis in thymus (Beagle dogs; recovered after 1-month recovery period): dose-dependent lymphocyte apoptosis in thymus was observed
